Columns and labels:
Penicillium expansum = assay: in vivo contact drench assay on apples
Description: In order to assess the activity of Compound A (FIG. 1) as a contact drench fungicide, an in vivo assay is developed. […] Compound A is dissolved in water to achieve a final treatment solution concentration of 250, 50, or 10 mg/L. The fruit is dipped in Compound A solution for 1 minute and allowed to dry for 1 hour. Fruit wounds are then inoculated with 30 μL of 1×10^6 per mL Penicillium expansum spore suspension (apple) or Penicillium digitatum spore suspension (orange). Clamshells are then placed in a 10.8-cup SnapWare airtight container (Model #109842) and incubated for 3 days at 21° C.

Botrytis cinerea [1] = assay: in vitro spore germination and mycelial growth after transfer; type: cell-based; conditions: for Mycelial growth after transfer (%): 3 d after transfer to clean PDA
Description: In order to assess the activity of Compound A as a volatile fungicide, an in vitro assay is developed to evaluate spore germination. 3.5-cm Petri plates are filled with 2 mL of water agar. After cooling, 1 μL of 1×10^5 per mL Botrytis cinerea spore suspension is spot-pipetted into the center of the plate. Plates are inoculated immediately prior to volatile fungicide treatment. A Whatman #1 filter disk (Cat. No. 1001-0155) is placed, in duplicate, on the underside of a plate lid. […] After 24 hours of storage at 23° C., 100 spores are counted for percent germination, where germination is defined as a germ tube that has extended a distance greater than the length of the spore. After counting, treatment is removed, and the plates are resealed. After an additional 24 hours, 100 spores are again counted. Plugs are then transferred to a clean plate containing full-strength PDA and allowed to incubate at 23° C. for an additional three days.

Penicillium digitatum = assay: in vivo volatile bioassay using orange fruit (Compound A); conditions: oranges
Description: In order to assess the in vivo activity of volatile antimicrobial Compound A in fruit, a volatile bioassay is developed using orange fruit. Two oranges are placed inside a PET clamshell. Three fresh wounds per orange are inoculated with 30 μL of 1×10^6 per mL Penicillium digitatum spore suspension. The clamshells are placed inside a 10.8-cup SnapWare airtight container (Model #109842). A 42.5 mm Whatman #1 filter disk (Cat. No. 1001-042) is placed on a watch glass. Compound A is dissolved in acetone and added to the disks in a dose dependent manner to produce a final headspace concentration of 2, 10, or 50 mg/L. The acetone is permitted to evaporate for five minutes. The containers are then closed with the lids and placed for three days at 21° C. After storage, fruits are evaluated for disease incidence (mm diameter of the rot) and pathogen sporulation (mm diameter) on the surface of the fruits for an additional two days at 21° C., with results summarized in Table 18.

Botrytis cinerea [2] = assay: in vivo strawberry assay, release from cardboard or filter paper; conditions: strawberries
Excerpt: An in vivo assay is used to evaluate the ability of Compound A to volatilize from different materials and control fungal pathogens. Eight strawberries are placed in a clamshell with the stem end facing downwards. […] The clamshells are then placed in a 10.8-cup SnapWare airtight container (Model #109842). As a substrate for Compound A, either a 42.5 mm Whatman #1 filter disk (Cat. No. 1001-042) placed on a watch glass or 10 square centimeter (cm^2) pieces of cardboard typically used for packaging strawberries was used. Compound A is dissolved in acetone and either pipetted on the disk or painted on the cardboard at a rate to achieve a final headspace concentration of 0.4, 2, or 10 mg/L. The acetone is permitted to evaporate for five minutes. The containers are closed, and placed for three days at 21° C. After treatment, fruit are stored for an additional two days at 21° C. and then evaluated for incidence (%) and severity (0 to 4) of disease, with the results summarized in Table 24.

## OB1OCc2cc(F)ccc21 [Compound A]
Penicillium expansum; dip 10 mg/L
  Browning (mm): 8.5 mm
  Sporulation (mm): 2.1 mm
Penicillium expansum; dip 50 mg/L
  Browning (mm): 3.7 mm
  Sporulation (mm): 1.6 mm
Penicillium expansum; dip 250 mg/L
  Browning (mm): 0.8 mm
  Sporulation (mm): 0.5 mm
Botrytis cinerea [1]; 0.07 mg/L, 24 h + 24 h after treatment removal
  Spore germination (%): 10.0%
Botrytis cinerea [1]; 0.07 mg/L, 24 h treatment
  Spore germination (%): 0.0%
Botrytis cinerea [1]; 0.07 mg/L
  Mycelial growth after transfer (%): 60.3%
Botrytis cinerea [1]; 0.14 mg/L, 24 h + 24 h after treatment removal
  Spore germination (%): 0.0%
Botrytis cinerea [1]; 0.14 mg/L, 24 h treatment
  Spore germination (%): 0.0%
Botrytis cinerea [1]; 0.14 mg/L
  Mycelial growth after transfer (%): 53.8%
Botrytis cinerea [1]; 0.28 mg/L, 24 h + 24 h after treatment removal
  Spore germination (%): 0.0%
Botrytis cinerea [1]; 0.28 mg/L, 24 h treatment
  Spore germination (%): 0.0%
Botrytis cinerea [1]; 0.28 mg/L
  Mycelial growth after transfer (%): 51.3%
Botrytis cinerea [1]; 0.56 mg/L, 24 h + 24 h after treatment removal
  Spore germination (%): 0.0%
Botrytis cinerea [1]; 0.56 mg/L, 24 h treatment
  Spore germination (%): 0.0%
Botrytis cinerea [1]; 0.56 mg/L
  Mycelial growth after transfer (%): 43.3%
Botrytis cinerea [1]; 71.4 mg/L, 24 h + 24 h after treatment removal
  Spore germination (%): 0.0%
Botrytis cinerea [1]; 71.4 mg/L, 24 h treatment
  Spore germination (%): 0.0%
Botrytis cinerea [1]; 71.4 mg/L
  Mycelial growth after transfer (%): 0.0%
Botrytis cinerea [1]; 142.9 mg/L, 24 h + 24 h after treatment removal
  Spore germination (%): 0.0%
Botrytis cinerea [1]; 142.9 mg/L, 24 h treatment
  Spore germination (%): 0.0%
Botrytis cinerea [1]; 142.9 mg/L
  Mycelial growth after transfer (%): 0.0%
Botrytis cinerea [1]; treated spores after the compound has been removed
  fungicidal or fungistatic effect: fungicidal effect
Penicillium digitatum; 2 mg/L, Day 0
  Sporulation (mm): 0 mm
  Water soaked lesions (mm): 0 mm
Penicillium digitatum; 2 mg/L, Day 1
  Sporulation (mm): 0.4 mm
  Water soaked lesions (mm): 0 mm
Penicillium digitatum; 2 mg/L, Day 2
  Sporulation (mm): 2.7 mm
  Water soaked lesions (mm): 13.4 mm
Penicillium digitatum; 10 mg/L, Day 0
  Sporulation (mm): 0.5 mm
  Water soaked lesions (mm): 0 mm
Penicillium digitatum; 10 mg/L, Day 1
  Sporulation (mm): 0.4 mm
  Water soaked lesions (mm): 0 mm
Penicillium digitatum; 10 mg/L, Day 2
  Sporulation (mm): 2.5 mm
  Water soaked lesions (mm): 9 mm
Penicillium digitatum; 50 mg/L, Day 0
  Sporulation (mm): 0 mm
  Water soaked lesions (mm): 0 mm
Penicillium digitatum; 50 mg/L, Day 1
  Sporulation (mm): 0 mm
  Water soaked lesions (mm): 0 mm
Penicillium digitatum; 50 mg/L, Day 2
  Sporulation (mm): 1.2 mm
  Water soaked lesions (mm): 5 mm
Botrytis cinerea [2]; 0.4 mg/L, Cardboard
  Incidence (%): 87.5%
  Severity (0-4): 0.9
Botrytis cinerea [2]; 0.4 mg/L, Filter Paper
  Incidence (%): 56.3%
  Severity (0-4): 2.5
Botrytis cinerea [2]; 2 mg/L, Cardboard
  Incidence (%): 37.5%
  Severity (0-4): 0.3
Botrytis cinerea [2]; 2 mg/L, Filter Paper
  Incidence (%): 37.5%
  Severity (0-4): 0.6
Botrytis cinerea [2]; 10 mg/L, Cardboard
  Incidence (%): 25%
  Severity (0-4): 0.2
Botrytis cinerea [2]; 10 mg/L, Filter Paper
  Incidence (%): 18.8%
  Severity (0-4): 0.3

From US9426996B2, “Use of benzoxaboroles as volatile antimicrobial agents on meats, plants, or plant parts” (AgroFresh Inc., priority 2013, dated 2016)
